One experiment deals with T1, human CDK4/cyclin D3 (Homo sapiens, UniProt P11802).
T1 construct: made in house; host or cells: insect cells co-infected with baculovirus vectors
As to the kind of experiment: Inhibition of CDK4/cyclin D retinoblastoma kinase activity (Ki; % inhibition). The class given is biochemical. The method in brief:
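Radiometric filter-binding read-out: Rb residues 386-928 phosphorylated by 5 nM CDK4/cyclin D3(1-264) from baculovirus-infected insect cells, 25 μM ATP, HEPES pH 7.4, 30 °C. Run 20 min, or 60 min for tight-binding inhibitors. Screening at 30 nM theoretical compound; apparent Ki by competitive-inhibition fitting.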

The subject of a further experiment is HCT-116 cell line. As to the kind of experiment: Inhibition of cell growth, MTT tetrazolium salt assay. The class given is cell-based. In a few lines: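 Growth inhibition was read as MTT-formazan absorbance at 540 nm, after 4 h with 0.2 mg/mL MTT. Before that, HCT-116 cells had been exposed 3–5 days at 37 °C to compounds in 0.5% (v/v) DMSO, added 4 h after plating. 50% and 90% inhibitory concentrations were taken from semi-log concentration–inhibition plots versus vehicle controls.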

The next experiment addresses T2, CDK2/cyclin A (Homo sapiens, UniProt P24941).
T2 construct: made in house; host or cells: CDK2: insect cells (baculovirus); cyclin A: E. coli
As to the kind of experiment: Inhibition of CDK2/cyclin A retinoblastoma kinase activity (Ki; % inhibition). Format: biochemical. The method in brief: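 Apparent Ki values came from fitting concentration-dependent activity data to competitive (or competitive tight-binding) models, and % inhibition from single 30 nM screens of library compounds. Activity was measured as ³²P/³³P incorporation from 25 μM ATP into an Rb substrate by 10 or 19 nM CDK2/delta cyclin A at 30 °C over 60–75 min, pH 7.4.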

The mark [1] stands for this setting: HCT-116 cells, 0.25 μM compound.

Counter-ions that a name gives are not always drawn.

T1 sequence (P11802 whole entry): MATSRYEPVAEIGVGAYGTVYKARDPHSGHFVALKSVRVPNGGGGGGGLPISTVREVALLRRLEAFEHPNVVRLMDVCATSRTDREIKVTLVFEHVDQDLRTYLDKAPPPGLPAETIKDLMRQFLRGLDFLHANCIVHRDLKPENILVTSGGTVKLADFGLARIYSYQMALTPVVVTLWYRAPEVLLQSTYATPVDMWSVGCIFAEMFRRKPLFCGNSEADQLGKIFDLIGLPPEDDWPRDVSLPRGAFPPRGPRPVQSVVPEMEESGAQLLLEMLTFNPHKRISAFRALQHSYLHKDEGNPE
T1 sequence (P30281 1-264 partner limits assumed): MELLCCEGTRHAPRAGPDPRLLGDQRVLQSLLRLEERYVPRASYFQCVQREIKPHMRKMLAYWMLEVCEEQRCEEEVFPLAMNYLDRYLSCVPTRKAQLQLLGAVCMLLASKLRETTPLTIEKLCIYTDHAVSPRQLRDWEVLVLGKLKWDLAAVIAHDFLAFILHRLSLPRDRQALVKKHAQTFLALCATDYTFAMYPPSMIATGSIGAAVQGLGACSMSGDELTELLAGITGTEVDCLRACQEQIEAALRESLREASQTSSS

As for `Nc1nc(Nc2ccc(C(=O)NCCCCCO)cc2)sc1C(=O)c1c(F)cccc1F` [Example G274], the “CDK4 % Inhibition at 0.03 μM” value on human CDK4/cyclin D3 (0.03 μM compound) is 5%. Further, the “HCT-116 % Inhibition at 0.1 μM” value in the experiment with HCT-116 cell line (HCT-116 cells, 0.1 μM compound) amounted to 15%. Besides, the “HCT-116 % Inhibition at 0.25 μM” value in the experiment on HCT-116 cell line (setting [1]) was 47%. For the same compound, the “CDK2 % Inhibition at 0.03 μM” value on CDK2/cyclin A (0.03 μM compound) is on record as −4%.

Turning to `Nc1nc(Nc2ccc(C(=O)NCCc3cccc(C(F)(F)F)c3)cc2)sc1C(=O)c1c(F)cccc1F` [Example G276], the “CDK4 % Inhibition at 0.03 μM” value at human CDK4/cyclin D3 (0.03 μM compound) is −2%. Moreover, the “HCT-116 % Inhibition at 0.1 μM” value in the experiment with HCT-116 cell line (HCT-116 cells, 0.1 μM compound) was 25%. Moreover, the “HCT-116 % Inhibition at 0.25 μM” value in the experiment on HCT-116 cell line (setting [1]) was found to be 58%. The “CDK2 % Inhibition at 0.03 μM” value at CDK2/cyclin A (0.03 μM compound) is 2%.

For the compound `Nc1nc(Nc2ccc(C(=O)Nc3cccc(Cl)c3)cc2)sc1C(=O)c1c(F)cccc1F` [Example G76], the “CDK4 % Inhibition at 0.03 μM” value at human CDK4/cyclin D3 (at 0.03 μM) is on record as 7%. Also, in the experiment with HCT-116 cell line (HCT-116, at 0.25 μM), the “HCT-116 % Inhibition at 0.25 μM” value is recorded as 61%. Also, the “CDK2 % Inhibition at 0.03 μM” value on CDK2/cyclin A (at 0.03 μM) is 7%.

`Nc1nc(Nc2ccc(C(=O)Nc3ccc(OC(F)(F)F)cc3)cc2)sc1C(=O)c1c(F)cccc1F` [Example G230]: the “CDK4 % Inhibition at 0.03 μM” value at human CDK4/cyclin D3 (0.03 μM compound) turned out to be 20%. The “HCT-116 % Inhibition at 0.1 μM” value with HCT-116 cell line (HCT-116 cells, 0.1 μM compound) is given as 19%. In the experiment with HCT-116 cell line (setting [1]), the “HCT-116 % Inhibition at 0.25 μM” value was determined as 52%. Further, the “CDK2 % Inhibition at 0.03 μM” value on CDK2/cyclin A (0.03 μM compound) is 8%.

With `Nc1nc(Nc2ccc(C(=O)NCc3ccc(F)c(C(F)(F)F)c3)cc2)sc1C(=O)c1c(F)cccc1F` [Example G302], the “CDK4 % Inhibition at 0.03 μM” value on human CDK4/cyclin D3 (0.03 μM compound) is 29%. Besides, the “HCT-116 % Inhibition at 0.1 μM” value in the experiment on HCT-116 cell line (HCT-116 cells, 0.1 μM compound) was 17%. In the experiment on HCT-116 cell line (setting [1]), the “HCT-116 % Inhibition at 0.25 μM” value is reported as 63%. On CDK2/cyclin A (0.03 μM compound), the “CDK2 % Inhibition at 0.03 μM” value was 17%.

As for `Nc1nc(Nc2ccc(C(=O)N3CCN(c4ccccn4)CC3)cc2)sc1C(=O)c1c(F)cccc1F` [Example C201], on human CDK4/cyclin D3 (0.03 μM compound), the “CDK4 % Inhibition at 0.03 μM” value is recorded as 26%. The “HCT-116 % Inhibition at 0.1 μM” value with HCT-116 cell line (HCT-116 cells, 0.1 μM compound) is reported as 17%. The “HCT-116 % Inhibition at 0.25 μM” value in the experiment with HCT-116 cell line (setting [1]) worked out at 43%. Further, at CDK2/cyclin A (0.03 μM compound), the “CDK2 % Inhibition at 0.03 μM” value was 6%.

With `C[C@H](NC(=O)c1ccc(Nc2nc(N)c(C(=O)c3c(F)cccc3F)s2)cc1)C(N)=O` [Example G191], the “CDK4 % Inhibition at 0.03 μM” value at human CDK4/cyclin D3 (at 0.03 μM) came to 15%. The “HCT-116 % Inhibition at 0.1 μM” value in the experiment on HCT-116 cell line (HCT-116, at 0.1 μM) stood at 3%. Besides, the “HCT-116 % Inhibition at 0.25 μM” value in the experiment with HCT-116 cell line (HCT-116, at 0.25 μM) was found to be 51%. Also, the “CDK2 % Inhibition at 0.03 μM” value at CDK2/cyclin A (at 0.03 μM) is 14%.

For `Nc1nc(Nc2ccc(C(=O)NCCCCc3ccccc3)cc2)sc1C(=O)c1c(F)cccc1F` [Example G291], on human CDK4/cyclin D3 (0.03 μM compound), the “CDK4 % Inhibition at 0.03 μM” value came out at 14%. Further, the “HCT-116 % Inhibition at 0.1 μM” value in the experiment on HCT-116 cell line (HCT-116 cells, 0.1 μM compound) is 5%. For the same compound, in the experiment with HCT-116 cell line (setting [1]), the “HCT-116 % Inhibition at 0.25 μM” value is given as 53%. Further, at CDK2/cyclin A (0.03 μM compound), the “CDK2 % Inhibition at 0.03 μM” value was 6%.

Regarding `Nc1nc(Nc2ccc(C(=O)NCCCN(CCO)CCO)cc2)sc1C(=O)c1c(F)cccc1F` [Example G339], the “CDK4 % Inhibition at 0.03 μM” value on human CDK4/cyclin D3 (0.03 μM compound) is 34%. Also, the “HCT-116 % Inhibition at 0.1 μM” value in the experiment on HCT-116 cell line (HCT-116 cells, 0.1 μM compound) is given as 9%. For the same compound, the “HCT-116 % Inhibition at 0.25 μM” value with HCT-116 cell line (setting [1]) is given as 48%. Also, the “CDK2 % Inhibition at 0.03 μM” value on CDK2/cyclin A (0.03 μM compound) turned out to be 6%.

Turning to `CCOc1ccccc1CCNC(=O)c1ccc(Nc2nc(N)c(C(=O)c3c(F)cccc3F)s2)cc1` [Example G380], the “CDK4 % Inhibition at 0.03 μM” value at human CDK4/cyclin D3 (0.03 μM compound) stood at 7%. For the same compound, in the experiment with HCT-116 cell line (HCT-116 cells, 0.1 μM compound), the “HCT-116 % Inhibition at 0.1 μM” value worked out at 26%. Moreover, in the experiment on HCT-116 cell line (setting [1]), the “HCT-116 % Inhibition at 0.25 μM” value was determined as 50%. For the same compound, on CDK2/cyclin A (0.03 μM compound), the “CDK2 % Inhibition at 0.03 μM” value is reported as −19%.

With `CN(CCC#N)C(=O)c1ccc(Nc2nc(N)c(C(=O)c3c(F)cccc3F)s2)cc1` [Example G296], the “CDK4 % Inhibition at 0.03 μM” value at human CDK4/cyclin D3 (0.03 μM compound) stood at 22%. Also, the “HCT-116 % Inhibition at 0.1 μM” value in the experiment on HCT-116 cell line (HCT-116 cells, 0.1 μM compound) is listed as 0%. In addition, the “HCT-116 % Inhibition at 0.25 μM” value in the experiment with HCT-116 cell line (setting [1]) came to 43%. Moreover, the “CDK2 % Inhibition at 0.03 μM” value on CDK2/cyclin A (0.03 μM compound) is 0%.

The term IC50 denotes the concentration that gives 50% inhibition. For the compound `Nc1nc(Nc2ccc(C(=O)NCCN3CC=CC3)cc2)sc1C(=O)c1c(F)cccc1F` [Example A45, 4-[4-Amino-5-(2,6-difluoro-benzoyl)-thiazol-2-ylamino]-N-[2-(2,5-dihydro-pyrrol-1-yl)-ethyl]-benzamide Dihydrochloride Salt], the Ki at human CDK4/cyclin D3 (apparent Ki, CDK4/cyclin D3, Rb substrate) was 7 nM; on CDK2/cyclin A (apparent Ki, CDK2/cyclin A, Rb substrate), 48 nM. For the same compound, the IC50 in the experiment with HCT-116 cell line (Homo sapiens, HCT-116, 120 h, MTT, three to five days) came out at 86 nM.

For `Nc1nc(Nc2ccc(C(=O)N3CCN(CCO)CC3)cc2)sc1C(=O)c1c(F)cccc1F` [Example G257], the “CDK4 % Inhibition at 0.03 μM” value at human CDK4/cyclin D3 (0.03 μM compound) is 2%. Moreover, the “HCT-116 % Inhibition at 0.1 μM” value in the experiment on HCT-116 cell line (HCT-116 cells, 0.1 μM compound) came to 33%. Besides, in the experiment with HCT-116 cell line (setting [1]), the “HCT-116 % Inhibition at 0.25 μM” value is on record as 51%. In addition, at CDK2/cyclin A (0.03 μM compound), the “CDK2 % Inhibition at 0.03 μM” value was −43%.

For the compound `CC(C)c1ccc(NC(=O)c2ccc(Nc3nc(N)c(C(=O)c4c(F)cccc4F)s3)cc2)cc1` [Example G69], the “CDK4 % Inhibition at 0.03 μM” value at human CDK4/cyclin D3 (at 0.03 μM) is on record as 3%. In addition, the “HCT-116 % Inhibition at 0.25 μM” value in the experiment with HCT-116 cell line (HCT-116, at 0.25 μM) amounted to 70%. Besides, the “CDK2 % Inhibition at 0.03 μM” value at CDK2/cyclin A (at 0.03 μM) is 7%.

(Values after US6720346B2, “Thiazole benzamide derivatives and pharmaceutical compositions for inhibiting cell proliferation” (Agouron Pharmaceuticals, Inc., priority 2001, dated 2004).)
